pIC50: −log10 of the molar value.
Target: T1, Coenzyme A biosynthesis bifunctional protein CoaBC (Mycobacterium tuberculosis (strain ATCC 25618 / H37Rv), UniProt P9WNZ1)
T1 sequence (P9WNZ1 whole entry): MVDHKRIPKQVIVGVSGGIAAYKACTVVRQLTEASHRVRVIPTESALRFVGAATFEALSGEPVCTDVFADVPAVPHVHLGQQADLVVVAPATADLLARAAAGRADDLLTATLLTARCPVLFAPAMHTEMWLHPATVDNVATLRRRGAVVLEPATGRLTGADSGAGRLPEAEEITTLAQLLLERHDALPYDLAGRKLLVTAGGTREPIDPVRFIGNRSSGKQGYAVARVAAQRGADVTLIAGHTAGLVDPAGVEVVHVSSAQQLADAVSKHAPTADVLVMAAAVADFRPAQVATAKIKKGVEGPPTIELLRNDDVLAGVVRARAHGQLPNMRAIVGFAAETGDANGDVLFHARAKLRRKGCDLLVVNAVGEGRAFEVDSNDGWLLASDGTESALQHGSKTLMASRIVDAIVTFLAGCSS
Experiment: Biomol Green assay for MtCoaBC inhibitor, OD650 read
Type: functional

Structure (SMILES)	pIC50
O=C(NCc1ccon1)c1c(F)cc(Br)cc1F	< 4.52
Cc1cccc(NC(=O)NC2CCC3(C2)OCCO3)c1Cl (stereo not given)	< 4.52
CCc1nc(NS(=O)(=O)c2cccc(F)c2C)no1	< 4.52
CN1CCCC(CNC(=O)N(C)Cc2ccc(Cl)c(F)c2)C1 (stereo not given)	< 4.52
CN1CCOC(CNCC(=O)NCCC2=CCCCC2)C1 (stereo not given)	< 4.52
Cc1cc(NC(=O)C2CCN(c3ncccc3C#N)CC2)no1	< 4.30
Cc1cccc(C(=O)NCC2CCS(=O)(=O)C2)n1 (stereo not given)	< 4.52
CCc1ncncc1C(=O)NCCNS(=O)(=O)c1ccccc1	< 4.30
CCc1ncncc1C(=O)NCCNS(=O)(=O)c1ccc(C)cc1	< 4.52
Cc1nn(CC(=O)N2CCN(c3ncccn3)CC2)c(C)c1Cl	< 4.52
Cc1ccc(CCCC(=O)N(C)CCN2CCOCC2)cc1	< 4.52
COc1ccc(CNC(=O)NC(C)(CO)C2CC2)c(C(F)(F)F)c1 (stereo not given)	< 4.52
CCc1cnc(CN(C)C2CCN(CCCNS(C)(=O)=O)C2)o1 (stereo not given)	< 4.52
CC(Cc1ccco1)NC(=O)CCn1cccn1 (stereo not given)	< 4.52
CC(C)C(C)(C#N)NC(=O)Cn1cc(C(N)=O)c(-c2ccccc2)n1 (stereo not given)	< 4.52
FC(F)(F)c1cccnc1N1CCC(OC2CCOCC2)CC1	< 4.52
O=C(CCCC1CCCC1)NS(=O)(=O)CC1CC1	< 4.52
NS(=O)(=O)c1cc(C(=O)N2CCCCC2)cs1	< 4.52
Cc1nnc(CN(C)S(=O)(=O)c2ccc(Br)cc2Cl)n1C	< 4.52
Cc1cc(C)n(C2CN(c3ncnc4c3CCC4)C2)n1	< 4.52

Structure (SMILES)	pIC50
COCCC(Cc1cccc(Br)c1)C(=O)O (stereo not given)	< 4.30
O=C(NCCC(=O)N1CCCC1)c1ccc(SCc2cccnc2)cc1	< 4.52
O=c1oc2ccccc2n1CCCN1CCCC1c1ccc(O)cc1 (stereo not given)	< 4.52
CN(CC(N)=O)C(=O)c1csc(Br)c1	< 4.52
O=S(=O)(NC1CCCCC12OCCO2)c1cc(F)cc(F)c1 (stereo not given)	< 4.52
Cc1[nH]ncc1C(=O)NCC(CO)Cc1ccc(Cl)cc1 (stereo not given)	< 4.52
CC(CO)(NC(=O)NCc1ccc(Br)s1)C1CC1 (stereo not given)	< 4.52
CC(C)c1nc(CNC2CCN(C(=O)OC(C)(C)C)CC2)cs1	< 4.52
CC(CS(C)(=O)=O)N(C(=O)CCc1cccc(F)c1)C1CC1 (stereo not given)	< 4.52
Cn1ncnc1NS(=O)(=O)c1ccc(F)cc1Cl	< 4.52
O=C(CN1CCCC(c2ccn[nH]2)C1)Nc1nncs1 (stereo not given)	< 4.52
C[S+]([O-])c1nncn1CC(=O)c1ccc(Cl)c(Cl)c1 (stereo not given)	< 4.52
CC(C)C(NC(=O)NCC1(CO)CC1)c1nnc2n1CCC2 (stereo not given)	< 4.52
O=C(NCC1CC1)[C@H]1C[C@@H]2CN(S(=O)(=O)Cc3ccccc3)C[C@H]1O2	< 4.52
NC(=O)N1CCC2(CC1)CN(c1ccsc1)C(=O)CO2	< 4.52
Cc1cnc(N2CCn3cc(CNC(=O)CC4CC4)nc3C2)nc1	< 4.52
COCCC(=O)N1CC2(CCN(Cc3ccoc3)C2)C1	< 4.52
COc1cccc(N2CCN(C(=O)C(C)Oc3ccccc3)CC2=O)c1 (stereo not given)	< 4.52
c1ccc(Cc2noc(CCNC3CCOC4(CCOCC4)C3)n2)cc1 (stereo not given)	< 4.52
O=c1n(CC2COCCO2)nc(CC2CCNCC2)n1-c1ccccc1 (stereo not given)	< 4.52

Structure (SMILES)	pIC50
O=C1CCC2(CCN(Cc3cscn3)CC2)CN1CC1CCCO1 (stereo not given)	< 4.52
Nc1ccncc1-n1cc(CCO)cn1	< 4.52
O=C(NCc1nc(NC2CCCC2)c2cc(Cl)ccc2n1)c1ccoc1	< 4.52
CCC[C@@H]1CN(Cc2c[nH]nc2-c2ccc(OC)cc2)C[C@H]1NC(C)=O	< 4.52
CCc1ncc(C(=O)NCC2CCN(Cc3ccncc3)CC2)cn1	< 4.52
Cc1cc(C)cc(-n2ncc3c2CCCC3N)c1 (stereo not given)	< 4.52
CCc1nc(C)c(CN2CCCC(c3nn(C)c(=O)n3CC)C2)[nH]1 (stereo not given)	< 4.52
Cc1nc(O)cc(C2(C)CCCNC2)n1 (stereo not given)	< 4.52
CCn1nc(C)c(-c2cncn2Cc2ccccc2CN(C)C)c1C	< 4.52
C[C@H]1CN2C[C@H](O)CC2CN1Cc1ccc2nccnc2c1 (stereo not given in full)	< 4.52
Cc1csc(CCNCc2cnc3c(c2)c(C)nn3C)n1	< 4.52
CN(C)CC(=O)N1CCC2(CC1)CN(c1ccsc1)C(=O)CO2	< 4.52
CN(C)C(=O)CN1CCCC2(CCN(c3ccsc3)C2=O)C1 (stereo not given)	< 4.52
CN(C)C(=O)CN1CCC2(CCCN(Cc3cccn3C)C2)C1=O (stereo not given)	< 4.52
Cc1csc(CN2CCC[C@]3(C[C@H](Oc4ccccn4)CO3)C2)n1	< 4.52
Cc1noc(C)c1CN1CCn2cc(CNc3ccccn3)nc2C1	< 4.52
CCN1C[C@H]2[C@@H](C1)N(S(=O)(=O)c1cccnc1)CC[C@H]2OC	< 4.52
O=C(NC1CCCC1)[C@@H]1CN(Cc2nccs2)C[C@H]2OCC[C@H]21	< 4.52
c1cncc(CN2CCc3ncnc(C4CCOC4)c3CC2)c1 (stereo not given)	< 4.52
OCCN(Cc1ccncc1)CC1(c2ccc(Cl)cc2)CCCC1	< 4.52
